The values that follow come from patent publication US20240376068A1, “SIGMA LIGAND COMPOUNDS AND USES THEREOF” (Minerva Neurosciences, Inc., priority 2020, published 2024).

Like-named read-outs stand apart in the source and are kept apart here.

The target of data set [1] is T1, α1a (h) (Homo sapiens (Human), UniProt P35348). Description: α1A adrenergic antagonist effect assay. Format: cell-based. The settings on record: for IC50: antagonist effect, CHO cells; for inhibition at 1 µM: α1A(h) antagonist effect, read-out: % inhibition of control values (1 μM). Here is the method:
Assays for determining the antagonist effect on α1A (h) were performed according to the procedure described in Example 21, and the results are represented in Table E below. […] No antagonist effect is observed for the other compounds.

Data set [2] addresses T2, α1d (h) (Homo sapiens (Human), UniProt P25100). Kind of data set: α1D adrenergic antagonist effect assay. To be noted: CHO cells. Format: cell-based.
The target in a further data set is hERG (Homo sapiens (Human), UniProt Q12809). Kind of data set: hERG inhibition assay.
The target in data set [3] is T3, α1b (h) (Homo sapiens (Human), UniProt P35368). Kind of data set: α1B adrenergic antagonist effect assay. The settings on record: CHO cells. The data set is classed as cell-based.
A further data set concerns the target Sigma 2 (h) (Homo sapiens (Human), UniProt Q5BJF2). Kind of data set: Sigma-2 binding assay. Here is the method:
(§1) Assays for determining Sigma-1 and Sigma-2 binding values were performed according to Ganapathy, M. E. et al. (1999), J. Pharmacol. Exp. Ther., 289:251-260.

The target of the next data set is sigma 1 (h) (Homo sapiens (Human), UniProt Q99720). Kind of data set: Sigma-1 binding assay. As to the method: as §1
In another data set the target is 5-HT2A (h) (Homo sapiens (Human), UniProt P28223). Kind of data set: 5-HT2A binding assay. The settings on record: antagonist radioligand, HEK-293 cells. Here is the method:
Assays for determining 5-HT2A binding values were performed according to: Bonhaus, D. W. et al. (1995), Brit. J. Pharmacol., 115:622-628; Schwinn, D. A. et al. (1995), J. Pharmacol. Exp. Ther., 272:134-142; and Vicentic, A. et al. (2002), J. Pharmacol. Exp. Ther., 302:58-65; Bylund D B et al. (1994), Pharmacol. Rev. 46:121-136. Each of which is incorporated by reference in its entirety.

For data set [4], the target named is T1, α1a (h). Kind of data set: α1A adrenergic agonist effect assay. To be noted: for IC50: agonist effect, CHO cells; for activation at 1 µM: α1A(h) agonist effect, read-out: % stimulation relative to control (1 μM). Format: cell-based. As to the method: Assays for determining the agonist effect on α1A (h) were performed according to the procedure described in Example 21, and the results are represented in Table D below.

For data set [5], the target named is T2, α1d (h). Kind of data set: α1D adrenergic agonist effect assay. To be noted: CHO cells. Format: cell-based.
For data set [6], the target named is T3, α1b (h). Kind of data set: α1B adrenergic agonist effect assay. The data set is classed as cell-based. The settings on record: CHO cells.
The target of a further data set is dopamine D2S receptor (Homo sapiens (Human), UniProt P14416). Description: Dopamine D2S receptor binding assay (Eurofins Cerep item 1322). To be noted: [3H]7-OH-DPAT, read-out: % inhibition of control specific binding (1 μM). As to the method:
Assays for determining dopamine D2S receptor binding values were performed according to Eurofins Cerep protocol item 1322 and the results are represented in Table C below. The parameters used for the assay are described below. […] Common antipsychotics, in contrast, block dopamine receptors (Keefe, et al., J Clin Psychiatry. 2018; 79 (3): 17m11753).

A further data set has as its target 5HT2A (Homo sapiens (Human), UniProt P28223). Kind of data set: 5HT2A agonist effect assay. The data set is classed as cell-based. To be noted: for activation at 0.1 µM: 100 nM, read-out: % stimulation relative to control (100 nM); for activation at 1 µM: read-out: % stimulation relative to control (1 μM). As to the method:
Assays for determining the agonist effect on 5HT2A were performed according to the procedure described in Example 21, and the results are represented in Table F below. The compounds in Table F have no agonist effect on 5HT2A at 1 μM and 100 nM.

The next data set relates to Vero-E6 cell line. Description: Toxicity evaluation on Vero-E6 cell line. Format: cell-based. To be noted: Vero E6, 50 μM to 0.37 μM, 72 h post treatment. Here is the method:
Day 1: Cell were seeded in 96 wells plate, Vero E6, P40, 10000 cells/well. Growth conditions included medium DMEM high glucose.
Day 2: Compounds were diluted in a mix of 50% DMSO and 50% growth medium to. 10 mM concentration was used for PB28 (10 mg vial from Tocris, 1-Cyclohexyl-4-(3-(5-methoxy-1,2,3,4-tetrahydronaphthalen-1-yl)-n-propyl)piperazine dihydrochloride, see Gordon et al. Nature 2020, 583, […]). Other compounds were prepared at 2 mM concentration stock solution. Cells were treated from 50 μM to 0.37 μM by serial dilution two-fold dilution in triplicate. Controls were designed to include the same concentration of DMSO for each tested products.
Day 5: For a 72 h post treatment, cells were fixed with formalin and stained with Hoetsch33342. Cells were imaged using a Cell Insight CX7 high content screening microscope. Number of cells and nuclear parameters were assessed using an internal cytotoxicity testing protocol.

Setting [7] is: [3H]DTG (+1 μM (+)pentazocine), Jurkat cells, read-out: Sigma-2 Ki.
Setting [8] is: [3H](+)pentazocine, Jurkat cells, read-out: Sigma-1 Ki.

T3 sequence (P35368 whole entry): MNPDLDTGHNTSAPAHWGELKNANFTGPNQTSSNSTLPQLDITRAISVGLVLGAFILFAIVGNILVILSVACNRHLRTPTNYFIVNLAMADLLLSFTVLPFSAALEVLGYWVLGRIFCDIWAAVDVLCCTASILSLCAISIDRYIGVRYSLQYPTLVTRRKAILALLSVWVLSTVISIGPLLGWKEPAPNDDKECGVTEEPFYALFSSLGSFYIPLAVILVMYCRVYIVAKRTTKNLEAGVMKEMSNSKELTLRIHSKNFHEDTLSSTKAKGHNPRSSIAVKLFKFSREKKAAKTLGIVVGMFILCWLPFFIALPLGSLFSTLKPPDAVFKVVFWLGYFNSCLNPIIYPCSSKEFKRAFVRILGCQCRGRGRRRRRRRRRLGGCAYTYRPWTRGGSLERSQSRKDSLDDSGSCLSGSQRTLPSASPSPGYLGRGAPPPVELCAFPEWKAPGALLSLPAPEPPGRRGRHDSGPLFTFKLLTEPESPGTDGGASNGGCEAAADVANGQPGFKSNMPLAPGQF
Chain of sigma 1 (h) (Q99720 whole entry): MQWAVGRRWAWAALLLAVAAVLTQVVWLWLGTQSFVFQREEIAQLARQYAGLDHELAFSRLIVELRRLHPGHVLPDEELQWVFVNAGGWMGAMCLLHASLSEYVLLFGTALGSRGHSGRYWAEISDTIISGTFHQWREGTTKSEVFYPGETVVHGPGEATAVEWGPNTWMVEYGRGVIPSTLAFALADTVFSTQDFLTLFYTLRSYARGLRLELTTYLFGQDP
T1 sequence (P35348 whole entry): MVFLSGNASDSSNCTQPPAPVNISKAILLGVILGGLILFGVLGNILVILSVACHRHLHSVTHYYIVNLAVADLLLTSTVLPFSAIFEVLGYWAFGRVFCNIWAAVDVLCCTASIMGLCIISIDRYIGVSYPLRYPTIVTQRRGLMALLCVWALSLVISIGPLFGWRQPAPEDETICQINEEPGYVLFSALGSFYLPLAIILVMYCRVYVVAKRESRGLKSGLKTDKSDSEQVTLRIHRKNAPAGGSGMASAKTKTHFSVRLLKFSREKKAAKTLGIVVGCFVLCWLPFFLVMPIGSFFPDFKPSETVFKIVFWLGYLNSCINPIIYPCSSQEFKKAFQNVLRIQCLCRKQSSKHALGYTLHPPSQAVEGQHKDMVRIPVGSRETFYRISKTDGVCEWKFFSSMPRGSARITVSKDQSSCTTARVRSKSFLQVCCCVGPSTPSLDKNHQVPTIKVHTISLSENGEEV
Chain of Sigma 2 (h) (Q5BJF2 whole entry): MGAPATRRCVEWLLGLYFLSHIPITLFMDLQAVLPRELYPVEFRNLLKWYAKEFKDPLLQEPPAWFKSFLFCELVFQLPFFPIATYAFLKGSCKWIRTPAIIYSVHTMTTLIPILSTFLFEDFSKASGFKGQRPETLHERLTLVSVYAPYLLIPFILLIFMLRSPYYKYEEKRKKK
Chain of hERG (Q12809 whole entry): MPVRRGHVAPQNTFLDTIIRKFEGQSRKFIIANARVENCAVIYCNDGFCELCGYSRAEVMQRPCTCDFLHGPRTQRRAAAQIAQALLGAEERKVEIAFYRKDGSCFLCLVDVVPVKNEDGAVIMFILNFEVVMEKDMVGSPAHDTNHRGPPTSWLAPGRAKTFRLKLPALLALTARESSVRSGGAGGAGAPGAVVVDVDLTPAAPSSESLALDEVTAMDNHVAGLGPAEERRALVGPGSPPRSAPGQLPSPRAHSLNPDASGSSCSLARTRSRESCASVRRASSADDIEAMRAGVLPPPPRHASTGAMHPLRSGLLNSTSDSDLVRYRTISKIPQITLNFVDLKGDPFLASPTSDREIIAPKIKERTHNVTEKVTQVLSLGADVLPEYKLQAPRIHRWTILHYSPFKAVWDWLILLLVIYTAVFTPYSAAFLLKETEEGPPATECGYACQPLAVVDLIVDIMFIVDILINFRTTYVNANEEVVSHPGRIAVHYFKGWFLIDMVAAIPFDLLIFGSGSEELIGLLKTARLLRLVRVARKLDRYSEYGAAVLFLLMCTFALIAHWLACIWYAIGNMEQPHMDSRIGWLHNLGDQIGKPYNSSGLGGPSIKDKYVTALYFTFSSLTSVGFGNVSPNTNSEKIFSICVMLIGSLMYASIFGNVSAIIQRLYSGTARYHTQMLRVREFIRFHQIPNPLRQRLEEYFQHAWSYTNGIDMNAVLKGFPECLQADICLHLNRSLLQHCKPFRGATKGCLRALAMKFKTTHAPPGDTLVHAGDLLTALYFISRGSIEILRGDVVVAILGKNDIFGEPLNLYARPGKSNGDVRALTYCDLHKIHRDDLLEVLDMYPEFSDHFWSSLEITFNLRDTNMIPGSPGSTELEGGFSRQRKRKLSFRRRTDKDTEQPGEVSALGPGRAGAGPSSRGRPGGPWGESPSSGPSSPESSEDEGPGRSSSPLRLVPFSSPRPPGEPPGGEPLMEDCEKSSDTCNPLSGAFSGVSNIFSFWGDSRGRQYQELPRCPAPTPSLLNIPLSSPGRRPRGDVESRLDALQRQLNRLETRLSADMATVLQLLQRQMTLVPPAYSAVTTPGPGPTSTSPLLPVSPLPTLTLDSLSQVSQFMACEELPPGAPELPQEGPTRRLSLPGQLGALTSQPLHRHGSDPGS
Chain of dopamine D2S receptor (P14416 other isoform, or with tags, fused parts or gaps): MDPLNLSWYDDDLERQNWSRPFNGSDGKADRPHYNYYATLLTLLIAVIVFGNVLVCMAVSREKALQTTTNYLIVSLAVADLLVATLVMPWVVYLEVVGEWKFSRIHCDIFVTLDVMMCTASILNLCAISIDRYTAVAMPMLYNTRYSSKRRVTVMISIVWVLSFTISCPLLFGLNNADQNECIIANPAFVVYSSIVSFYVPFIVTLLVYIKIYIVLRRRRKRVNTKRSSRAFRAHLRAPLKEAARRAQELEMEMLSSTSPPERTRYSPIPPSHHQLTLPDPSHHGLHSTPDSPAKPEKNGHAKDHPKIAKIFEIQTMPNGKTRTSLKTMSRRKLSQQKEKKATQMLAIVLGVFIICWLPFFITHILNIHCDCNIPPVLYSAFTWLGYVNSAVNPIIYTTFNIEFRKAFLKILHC
T2 sequence (P25100 whole entry): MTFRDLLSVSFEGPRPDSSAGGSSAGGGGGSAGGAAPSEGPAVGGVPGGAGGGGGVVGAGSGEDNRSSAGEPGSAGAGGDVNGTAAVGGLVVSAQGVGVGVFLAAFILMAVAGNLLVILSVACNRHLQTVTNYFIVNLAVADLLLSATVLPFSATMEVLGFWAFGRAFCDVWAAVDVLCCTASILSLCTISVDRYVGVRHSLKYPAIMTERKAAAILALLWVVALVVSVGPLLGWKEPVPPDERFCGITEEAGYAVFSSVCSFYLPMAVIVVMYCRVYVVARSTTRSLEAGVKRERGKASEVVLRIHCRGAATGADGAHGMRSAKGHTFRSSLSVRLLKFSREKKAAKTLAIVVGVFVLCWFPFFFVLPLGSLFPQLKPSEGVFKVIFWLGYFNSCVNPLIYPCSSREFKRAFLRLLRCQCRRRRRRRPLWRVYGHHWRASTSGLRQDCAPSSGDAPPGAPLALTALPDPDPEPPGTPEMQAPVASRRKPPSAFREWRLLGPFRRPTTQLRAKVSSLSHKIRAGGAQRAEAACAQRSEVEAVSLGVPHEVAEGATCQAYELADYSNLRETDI
Chain of 5-HT2A (h) (P28223 whole entry): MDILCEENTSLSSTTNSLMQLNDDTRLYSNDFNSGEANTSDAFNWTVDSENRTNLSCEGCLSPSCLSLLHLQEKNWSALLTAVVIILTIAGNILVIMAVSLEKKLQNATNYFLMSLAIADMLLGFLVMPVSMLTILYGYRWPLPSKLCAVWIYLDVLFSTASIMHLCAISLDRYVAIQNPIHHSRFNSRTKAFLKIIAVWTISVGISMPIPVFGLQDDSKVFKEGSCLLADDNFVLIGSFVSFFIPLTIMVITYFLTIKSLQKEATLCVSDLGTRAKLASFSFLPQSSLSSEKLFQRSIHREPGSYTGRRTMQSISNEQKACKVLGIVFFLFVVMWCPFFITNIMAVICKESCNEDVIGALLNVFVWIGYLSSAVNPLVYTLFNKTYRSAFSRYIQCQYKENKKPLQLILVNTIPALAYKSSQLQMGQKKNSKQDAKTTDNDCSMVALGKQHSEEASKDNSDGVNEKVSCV

Consider `CC1(C)CCN(C2CCCC2)Cc2cc(-c3ccc(C(F)(F)F)cc3)ccc21` [Compound 10, 2-cyclopentyl-5,5-dimethyl-8-(4-(trifluoromethyl)phenyl)-2,3,4,5-tetrahydro-1H-benzo[c]azepine], for which the half-inhibitory concentration (IC50) against α1a (h) [1] is > 1000 nM; at α1d (h) [2], > 1000 nM; against hERG, > 3000 nM; against α1b (h) [3], > 1000 nM; at 5-HT2A (h), > 1000 nM; on α1a (h) [4], > 1000 nM. Moreover, the IC50 on α1d (h) [5] and at α1b (h) [6] was > 1000 nM each time. Moreover, the inhibition constant Ki is 5 to 50 nM on Sigma 2 (h) and > 500 nM at sigma 1 (h).
As for `CC1(C)CCN(C(=O)C2CCCC2)Cc2cc(N3CCN(C4CCCC4)CC3)ccc21` [Compound 73, cyclopentyl(8-(4-cyclopentylpiperazin-1-yl)-5,5-dimethyl-1,3,4,5-tetrahydro-2H-benzo[c]azepin-2-yl)methanone], the results for the inhibition at 1 µM at α1a (h) [1] and at dopamine D2S receptor were 31% and 6%, respectively. In addition, the IC50 on hERG turned out to be 2600 nM. Also, the results for the Ki on Sigma 2 (h) (setting [7]) and on sigma 1 (h) (setting [8]) were 5 to 50 nM and 0.1 to 5 nM, respectively. For the same compound, the activation at 1 µM on α1a (h) [4] and at 5HT2A was 0% in each case. The activation at 0.1 µM on 5HT2A stood at 2%.
For `CC1(C)CN(S(=O)(=O)c2cccc(Cl)c2)Cc2cc(N3CCN(C4CCCC4)CC3)ccc21` [Compound 33, 2-((3-chlorophenyl)sulfonyl)-7-(4-cyclopentylpiperazin-1-yl)-4,4-dimethyl-1,2,3,4-tetrahydroisoquinoline], the inhibition at 1 µM on α1a (h) [1] stood at 9%; at dopamine D2S receptor, 13%. In addition, the IC50 at hERG was > 3000 nM. Moreover, the Ki at Sigma 2 (h) (setting [7]) and at sigma 1 (h) (setting [8]) was 0.1 to 5 nM each time. For the same compound, the activation at 1 µM at α1a (h) [4] and at 5HT2A was -1% each time. Besides, the activation at 0.1 µM on 5HT2A worked out at 0%.
Turning to `CCCN1CCN(c2ccc3c(c2)CN(C(=O)OCc2ccccc2)CC3(C)C)CC1` [Compound 2, benzyl 4,4-dimethyl-7-(4-propylpiperazin-1-yl)-3,4-dihydroisoquinoline-2(1H)-carboxylate], the IC50 against α1a (h) [1] is > 1000 nM; against α1d (h) [2] it was > 1000 nM; at hERG it was > 3000 nM; against α1b (h) [3], > 1000 nM; on 5-HT2A (h), > 1000 nM; on α1a (h) [4], > 1000 nM. The IC50 at α1d (h) [5] and on α1b (h) [6] was > 1000 nM throughout. Also, the inhibition constant (Ki) on Sigma 2 (h) (setting [7]) and at sigma 1 (h) (setting [8]) was 5 to 50 nM throughout. Also, the “cytotoxicity (cell number)” value in the data set on Vero-E6 cell line is reported as “not cytotoxic”.
With `CC1(C)CCN(S(=O)(=O)c2cccc(Cl)c2)Cc2cc(N3CCC(N4CCOCC4)CC3)ccc21` [Compound 80, 4-(1-(2-((3-chlorophenyl)sulfonyl)-5,5-dimethyl-2,3,4,5-tetrahydro-1H-benzo[c]azepin-8-yl)piperidin-4-yl)morpholine], the inhibition at 1 µM is 15% at α1a (h) [1] and 4% on dopamine D2S receptor. The IC50 on hERG was > 3000 nM. Also, the values for the Ki at Sigma 2 (h) (setting [7]) and at sigma 1 (h) (setting [8]) were 50 to 100 nM and 0.1 to 5 nM, respectively. Also, the activation at 1 µM on α1a (h) [4] was 0%; at 5HT2A it was 1%. For the same compound, the activation at 0.1 µM on 5HT2A is 0%.
Regarding `CC(C)OC(=O)N1Cc2cc(N3CCN(C4CCCC4)CC3)ccc2C(C)(C)C1` [Compound 45, isopropyl 7-(4-cyclopentylpiperazin-1-yl)-4,4-dimethyl-3,4-dihydroisoquinoline-2(1H)-carboxylate], the inhibition at 1 µM at α1a (h) [1] was 19%; on dopamine D2S receptor, -5%. Besides, the half-inhibitory concentration (IC50) on hERG is > 3000 nM. Further, the inhibition constant (Ki) at Sigma 2 (h) (setting [7]) was in the range of 5 to 50 nM; on sigma 1 (h) (setting [8]), 0.1 to 5 nM. The activation at 1 µM on α1a (h) [4] was 0%; on 5HT2A, -1%. Also, at 5HT2A, the activation at 0.1 µM is -4%.
